Inhibition and IC50 data for 9 molecules are collected here from ChEMBL document CHEMBL1130767, “Discovery of a new cyclooxygenase-2 lead compound through 3-D database searching and combinatorial chemistry” (Bioorg Med Chem Lett, 1998).

For test [1], the target named is T1, Prostaglandin G/H synthase 1 (Homo sapiens, UniProt P23219). Put plainly: Compound was evaluated for percent inhibition of Prostaglandin G/H synthase 1 at the concentration of 10 uM.
In test [2] the target is T2, Prostaglandin G/H synthase 2 (Homo sapiens) (UniProt P35354).
T2 sequence (whole entry): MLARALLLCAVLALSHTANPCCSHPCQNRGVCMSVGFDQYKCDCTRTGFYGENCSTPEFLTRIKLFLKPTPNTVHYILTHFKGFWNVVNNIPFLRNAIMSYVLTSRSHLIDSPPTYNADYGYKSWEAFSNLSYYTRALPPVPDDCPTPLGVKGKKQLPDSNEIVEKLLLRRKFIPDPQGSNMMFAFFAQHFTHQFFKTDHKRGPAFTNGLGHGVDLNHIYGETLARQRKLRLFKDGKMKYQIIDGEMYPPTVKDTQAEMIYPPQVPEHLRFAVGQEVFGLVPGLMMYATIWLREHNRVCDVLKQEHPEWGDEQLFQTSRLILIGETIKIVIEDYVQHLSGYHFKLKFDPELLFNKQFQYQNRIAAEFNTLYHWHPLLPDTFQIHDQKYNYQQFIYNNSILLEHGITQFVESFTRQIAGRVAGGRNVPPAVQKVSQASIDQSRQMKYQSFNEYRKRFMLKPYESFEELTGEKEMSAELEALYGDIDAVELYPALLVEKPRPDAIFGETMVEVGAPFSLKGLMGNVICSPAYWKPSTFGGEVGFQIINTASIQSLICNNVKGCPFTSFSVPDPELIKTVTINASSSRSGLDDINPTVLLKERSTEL
As to the kind of experiment: Compound was evaluated for percent inhibition of Prostaglandin G/H synthase 2 at the concentration of 10 uM.

Test [3] addresses T2, Prostaglandin G/H synthase 2 (Homo sapiens). As to the kind of experiment: Compound was evaluated for percent inhibition of Prostaglandin G/H synthase 2 at the concentration of 0.3 uM.
Test [4] has as its target T3, Prostaglandin G/H synthase 2 (Homo sapiens, UniProt P35354).
T3 sequence (P35354 whole entry): T2 sequence (whole entry)
As to the kind of experiment: Inhibitory activity was evaluated against human Prostaglandin G/H synthase 2 was determined.

In test [5] the target is T1, Prostaglandin G/H synthase 1. As to the kind of experiment: Compound was evaluated for the inhibition of Prostaglandin G/H synthase 1 at the concentration of 3 uM.
The target is the same in test [6]. Put plainly: Compound was evaluated for percent inhibition of Prostaglandin G/H synthase 1 at the concentration of 0.3 uM.
Test [7] shares this target. As to the kind of experiment: Inhibitory activity was evaluated against human Prostaglandin G/H synthase 1 was determined.

T1 sequence (P23219 whole entry): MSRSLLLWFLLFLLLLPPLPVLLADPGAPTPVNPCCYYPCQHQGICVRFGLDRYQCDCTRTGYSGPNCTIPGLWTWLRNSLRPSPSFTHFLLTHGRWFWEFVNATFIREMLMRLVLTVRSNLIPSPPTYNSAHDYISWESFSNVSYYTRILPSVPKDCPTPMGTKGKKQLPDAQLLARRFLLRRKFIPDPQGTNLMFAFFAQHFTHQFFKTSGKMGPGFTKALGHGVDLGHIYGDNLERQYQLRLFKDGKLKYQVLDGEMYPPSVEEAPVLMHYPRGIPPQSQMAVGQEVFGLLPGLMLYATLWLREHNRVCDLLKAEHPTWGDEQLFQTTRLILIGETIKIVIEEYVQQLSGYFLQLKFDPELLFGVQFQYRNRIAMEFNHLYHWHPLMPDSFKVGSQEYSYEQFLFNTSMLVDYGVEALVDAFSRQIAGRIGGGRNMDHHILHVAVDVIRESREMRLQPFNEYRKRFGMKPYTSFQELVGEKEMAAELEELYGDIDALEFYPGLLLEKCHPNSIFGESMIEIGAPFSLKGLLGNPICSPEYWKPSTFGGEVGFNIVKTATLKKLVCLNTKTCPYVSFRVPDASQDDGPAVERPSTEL

With `O=C(O)CCN1c2ccccc2Sc2ccccc21`, the inhibition in test [1] turned out to be 25%; in test [2], 14%.

As for `CC(C)(Oc1ccc(Cl)cc1)C(=O)NCCCN1c2ccccc2Sc2ccccc21`, the inhibition in test [3] came out at 44%; in test [5], 17%; in test [6], 13%. In addition, the IC50 in test [4] worked out at 1.3 µM.

Regarding `CC(O)CN1c2ccccc2Sc2ccccc21` (centres undefined), the IC50 stood at 5 µM in test [4] and 1 µM in test [7].

On to `CC(C)(COc1ccc(Br)cc1)C(=O)NCCCN1c2ccccc2Sc2ccccc21`, for which the inhibition in test [3] turned out to be 34%; in test [5], 19%; in test [6], 12%. In test [4], this molecule had an IC50 of 21 µM.

`O=C(COc1ccc(Br)cc1)NCCCN1c2ccccc2Sc2ccccc21` registered an inhibition in test [3] of 15%.

Take `CC(S)CN1c2ccccc2Sc2ccccc21` (centres undefined): the IC50 in test [4] came to 4 µM; in test [7], 0.5 µM.

Consider `CCC(=O)NCCCN1c2ccccc2Sc2ccccc21`, for which, in test [3], the inhibition worked out at 18%.

In test [3], `O=C(CCC1CCCCC1)NCCCN1c2ccccc2Sc2ccccc21` had an inhibition of 15%.

Consider `OCCN1c2ccccc2Sc2ccccc21`, for which the inhibition in test [1] was 12%; in test [2] it was 14%.
